The record followed here is patent US11896646B2, “Formulated and/or co-formulated liposome compositions containing toll-like receptor (“TLR”) agonist prodrugs useful in the treatment of cancer and methods thereof” (Nammi Therapeutics, Inc., priority 2020, dated 2024).

Test [1] has as its target T1, human TLR8 (Homo sapiens, UniProt Q9NR97).
T1 construct: host or cells: HEK-Blue hTLR8 (HEK 293)
T1 sequence (Q9NR97 27-1041): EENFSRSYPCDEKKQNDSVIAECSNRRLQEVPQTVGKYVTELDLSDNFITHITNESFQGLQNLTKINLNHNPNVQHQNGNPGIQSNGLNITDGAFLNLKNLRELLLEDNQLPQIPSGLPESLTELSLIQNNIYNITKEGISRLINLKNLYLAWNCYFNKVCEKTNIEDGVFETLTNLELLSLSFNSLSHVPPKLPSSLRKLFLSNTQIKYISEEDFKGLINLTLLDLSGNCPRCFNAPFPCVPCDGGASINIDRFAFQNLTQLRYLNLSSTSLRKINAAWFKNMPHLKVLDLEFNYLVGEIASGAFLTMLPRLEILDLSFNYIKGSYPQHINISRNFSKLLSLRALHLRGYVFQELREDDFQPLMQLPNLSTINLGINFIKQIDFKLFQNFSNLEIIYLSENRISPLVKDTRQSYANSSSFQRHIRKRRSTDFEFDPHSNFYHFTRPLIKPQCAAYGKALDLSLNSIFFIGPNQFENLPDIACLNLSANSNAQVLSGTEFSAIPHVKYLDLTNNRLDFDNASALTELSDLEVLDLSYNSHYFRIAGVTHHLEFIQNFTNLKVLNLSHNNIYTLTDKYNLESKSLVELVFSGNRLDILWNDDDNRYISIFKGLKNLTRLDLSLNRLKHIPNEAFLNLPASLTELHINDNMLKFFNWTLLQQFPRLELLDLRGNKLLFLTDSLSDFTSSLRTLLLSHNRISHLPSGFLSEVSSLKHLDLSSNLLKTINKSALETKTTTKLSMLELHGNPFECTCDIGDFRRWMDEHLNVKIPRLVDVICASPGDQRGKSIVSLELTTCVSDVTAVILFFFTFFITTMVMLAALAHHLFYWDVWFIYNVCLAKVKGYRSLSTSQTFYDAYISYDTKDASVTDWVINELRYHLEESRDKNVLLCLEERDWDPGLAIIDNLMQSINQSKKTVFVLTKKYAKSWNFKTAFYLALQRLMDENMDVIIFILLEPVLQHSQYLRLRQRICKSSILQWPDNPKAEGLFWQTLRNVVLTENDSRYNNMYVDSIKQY
Nature of the test: HEK-Blue TLR8 SEAP reporter / QUANTI-Blue assay (Example 20). It counts as cell-based. To be noted: HEK-Blue TLR8 cells, 24 hr incubation, different concentration. The method, then: (§1) In another experiment, in vitro biological activity of LNP-TR3 and to further confirm targeting of TLR7 and not targeting TLR8, the following experiment(s) were performed using a RAW-Blue™ (NF-κB/AP-1 inducible secreted embryonic alkaline phosphatase (SEAP) reporter gene) Cells and QUANTI-Blue™ (alkaline phosphatase assay), HEK-Blue™ (HEK 293 cell line expressing a TLR gene and an NF-κB/AP-1 inducible secreted embryonic alkaline phosphatase (SEAP) reporter gene), and hTLR8 cell line assay (InvivoGen, San Diego, CA). Briefly, despite Raw Blue™ (NF-κB/AP-1 inducible secreted embryonic alkaline phosphatase (SEAP) reporter gene) cells that express a variety of human Toll Like Receptors (TLRs) (including TLR7/8 but with the exception of TLR5) hTLR8 cells dominantly express the human TLR8. Additionally, an NE κB/AP-1-inducible SEAP (secreted embryonic alkaline phosphatase) reporter gene were used. Stimulation of these cells with TR3 lead to NF-κB activation through TLR8 which is measured by detection of SEAP levels.

Test [2] deals with TLRs in RAW-Blue cells. In words: RAW-Blue SEAP reporter / QUANTI-Blue assay (Example 20). It counts as cell-based, mouse. Conditions: 24 hr incubation, different concentration. How it is done: as §1, with “Additionally, an NE κB/AP-1-inducible SEAP (secreted embryonic alkaline phosphatase) reporter gene were used.” left out
RAW-Blue™ (NF-κB/AP-1 inducible secreted embryonic alkaline phosphatase (SEAP) reporter gene) Cells were incubated with TR5, LNP-TR5, TR3, TR3+Stearic Acid, and LNP-TR3 at different concentration. After twenty-four (24) hr. incubation with the compounds, TLR stimulation was assessed by measuring the levels of SEAP optimal density (OD) using a QUANTI-Blue™ (alkaline phosphatase assay) assay. […]

Test [3] addresses T2, TLR4 (Mus musculus, UniProt Q9QUK6).
T2 construct: host or cells: RAW-Blue cells
T2 sequence (Q9QUK6 26-835): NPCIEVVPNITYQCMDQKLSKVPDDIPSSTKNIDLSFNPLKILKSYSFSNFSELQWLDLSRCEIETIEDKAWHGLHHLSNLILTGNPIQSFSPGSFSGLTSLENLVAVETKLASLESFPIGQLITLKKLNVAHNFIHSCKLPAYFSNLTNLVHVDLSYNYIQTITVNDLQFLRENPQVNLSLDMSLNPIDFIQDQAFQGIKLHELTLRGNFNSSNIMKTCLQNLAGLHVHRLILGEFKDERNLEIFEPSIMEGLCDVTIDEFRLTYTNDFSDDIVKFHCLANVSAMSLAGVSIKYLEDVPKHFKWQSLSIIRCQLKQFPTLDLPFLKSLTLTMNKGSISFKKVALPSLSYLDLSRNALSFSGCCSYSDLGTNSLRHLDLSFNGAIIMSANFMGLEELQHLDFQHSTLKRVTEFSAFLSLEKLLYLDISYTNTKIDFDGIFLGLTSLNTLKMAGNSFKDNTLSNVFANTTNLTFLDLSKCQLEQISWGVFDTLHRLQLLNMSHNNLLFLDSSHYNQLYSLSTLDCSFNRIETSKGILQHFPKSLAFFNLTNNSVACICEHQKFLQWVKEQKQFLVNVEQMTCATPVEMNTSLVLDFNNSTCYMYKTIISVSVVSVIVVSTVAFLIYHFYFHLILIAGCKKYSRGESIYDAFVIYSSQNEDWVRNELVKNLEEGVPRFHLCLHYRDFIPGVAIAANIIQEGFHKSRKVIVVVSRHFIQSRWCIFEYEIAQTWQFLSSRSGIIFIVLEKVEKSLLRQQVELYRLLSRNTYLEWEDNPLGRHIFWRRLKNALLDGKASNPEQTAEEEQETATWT
T2 sequence (Q9JHF9 19-160 partner): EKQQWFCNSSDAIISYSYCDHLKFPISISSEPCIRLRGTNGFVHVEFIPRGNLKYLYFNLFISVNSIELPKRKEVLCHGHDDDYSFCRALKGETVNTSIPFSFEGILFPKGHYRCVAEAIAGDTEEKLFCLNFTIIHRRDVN
Nature of the test: RAW-Blue SEAP reporter / QUANTI-Blue assay, TLR4 (Example 18). Format: cell-based. Conditions: RAW-Blue cells, 24 hr incubation, different concentration. How it is done: In another experiment, in vitro biological activity of LNP-TR8 and to further confirm targeting of TLR4, the following experiment(s) were performed using a RAW-Blue™ (NF-[…]/AP-1 inducible secreted embryonic alkaline phosphatase (SEAP) reporter gene) Cells and QUANTI-Blue™ (alkaline phosphatase assay) assay (InvivoGen, San Diego, CA). Briefly, Raw Blue™ (NF-κB/AP-1 inducible secreted embryonic alkaline phosphatase (SEAP) reporter gene) cells that express human Toll Like Receptors (TLRs) (with the exception of TLR5) and an NF-κB/AP-1-inducible SEAP (secreted embryonic alkaline phosphatase) reporter gene were used. Stimulation of these cells with TR8 lead to NF-κB activation through TLR4 which is measured by detection of SEAP levels. RAW-Blue™ (NF-κB/AP-1 inducible secreted embryonicalkaline phosphatase (SEAP) reporter gene) Cells were incubated with TR8 and LNP-TR8 at different concentration. After twenty-four (24) hr. incubation with the compounds, TLR stimulation was assessed by measuring the levels of SEAP optimal density (OD) using a QUANTI-Blue™ (alkaline phosphatase assay) assay. ODs were normalized to the control (untreated) group. […] (See, FIG. 26).

Regarding `CCCCCCCCCCCCCCCCCCS(=O)(=O)NCCCCn1c(CC)nc2c(N)nc3ccccc3c21` [TR3+Stearic Acid], the “TLR stimulation (SEAP OD normalized to untreated control)” value was “only TR5 in prodrug and liposome form were able to stimulate the cells” in test [1]; “stimulated TLRs” in test [2].

Regarding “Monophosphoryl Lipid A (Synthetic) [TR8]”, the “TLR stimulation (SEAP OD normalized to untreated control)” value in test [3] is recorded as “could cause stimulation of TLR4”.
